# Assay results reported in ChEMBL document CHEMBL4507327 (2021).
# Experiments:
# [1] = target: T1, Muscarinic acetylcholine receptor M2 (Homo sapiens) (UniProt P08172); settings: Compound concentration 10.0 uM
# T1 sequence (whole entry): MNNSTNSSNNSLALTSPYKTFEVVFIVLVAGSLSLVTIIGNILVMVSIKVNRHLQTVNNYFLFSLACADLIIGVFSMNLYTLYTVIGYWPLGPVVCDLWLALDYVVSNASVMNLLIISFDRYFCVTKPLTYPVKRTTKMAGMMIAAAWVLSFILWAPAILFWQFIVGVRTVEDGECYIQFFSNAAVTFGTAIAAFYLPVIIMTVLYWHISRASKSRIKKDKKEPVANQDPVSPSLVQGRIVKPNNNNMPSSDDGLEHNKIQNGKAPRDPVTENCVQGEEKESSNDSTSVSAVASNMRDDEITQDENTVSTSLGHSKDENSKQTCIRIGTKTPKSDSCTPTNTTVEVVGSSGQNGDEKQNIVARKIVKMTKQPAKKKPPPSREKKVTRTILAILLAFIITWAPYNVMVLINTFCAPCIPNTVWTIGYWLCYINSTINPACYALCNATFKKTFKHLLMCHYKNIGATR
# [2] = target: Adenosine receptor A3 (Homo sapiens) (UniProt P0DMS8); settings: Compound concentration 10.0 uM
# [3] = target: Bone morphogenetic protein receptor type-2 (Homo sapiens, UniProt Q13873); test: BMPR2(BMR2LGN1) Takeda global kinase panel
# [4] = target: Serine/threonine-protein kinase 26 (Homo sapiens, UniProt Q9P289); test: MST4(MST4LGC1) Takeda global kinase panel
# [5] = target: Cyclin-dependent kinase 3 (Homo sapiens, UniProt Q00526); test: CDK3(CDK3CGS1) Takeda global kinase panel
# [6] = target: STE20-related kinase adapter protein alpha (Homo sapiens, UniProt Q7RTN6); test: STLK5(STRAPHD1) Takeda global kinase panel
# Chain of STE20-related kinase adapter protein alpha (Q7RTN6 whole entry): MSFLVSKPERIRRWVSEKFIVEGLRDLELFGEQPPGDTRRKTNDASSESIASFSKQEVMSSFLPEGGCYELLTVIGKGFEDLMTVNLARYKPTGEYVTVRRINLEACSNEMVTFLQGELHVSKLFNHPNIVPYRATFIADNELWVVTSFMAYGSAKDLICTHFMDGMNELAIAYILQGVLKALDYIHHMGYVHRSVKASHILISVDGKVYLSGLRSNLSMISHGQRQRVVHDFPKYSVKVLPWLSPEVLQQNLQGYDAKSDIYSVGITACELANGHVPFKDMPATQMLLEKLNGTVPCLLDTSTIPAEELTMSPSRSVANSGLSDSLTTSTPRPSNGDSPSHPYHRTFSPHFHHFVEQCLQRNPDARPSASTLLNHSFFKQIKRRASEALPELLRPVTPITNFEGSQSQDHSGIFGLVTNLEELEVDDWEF
# [7] = target: Microtubule-associated serine/threonine-protein kinase 3 (Homo sapiens, UniProt O60307); test: MAST3(MAS3LGE1) Takeda global kinase panel
# Chain of Microtubule-associated serine/threonine-protein kinase 3 (O60307 whole entry): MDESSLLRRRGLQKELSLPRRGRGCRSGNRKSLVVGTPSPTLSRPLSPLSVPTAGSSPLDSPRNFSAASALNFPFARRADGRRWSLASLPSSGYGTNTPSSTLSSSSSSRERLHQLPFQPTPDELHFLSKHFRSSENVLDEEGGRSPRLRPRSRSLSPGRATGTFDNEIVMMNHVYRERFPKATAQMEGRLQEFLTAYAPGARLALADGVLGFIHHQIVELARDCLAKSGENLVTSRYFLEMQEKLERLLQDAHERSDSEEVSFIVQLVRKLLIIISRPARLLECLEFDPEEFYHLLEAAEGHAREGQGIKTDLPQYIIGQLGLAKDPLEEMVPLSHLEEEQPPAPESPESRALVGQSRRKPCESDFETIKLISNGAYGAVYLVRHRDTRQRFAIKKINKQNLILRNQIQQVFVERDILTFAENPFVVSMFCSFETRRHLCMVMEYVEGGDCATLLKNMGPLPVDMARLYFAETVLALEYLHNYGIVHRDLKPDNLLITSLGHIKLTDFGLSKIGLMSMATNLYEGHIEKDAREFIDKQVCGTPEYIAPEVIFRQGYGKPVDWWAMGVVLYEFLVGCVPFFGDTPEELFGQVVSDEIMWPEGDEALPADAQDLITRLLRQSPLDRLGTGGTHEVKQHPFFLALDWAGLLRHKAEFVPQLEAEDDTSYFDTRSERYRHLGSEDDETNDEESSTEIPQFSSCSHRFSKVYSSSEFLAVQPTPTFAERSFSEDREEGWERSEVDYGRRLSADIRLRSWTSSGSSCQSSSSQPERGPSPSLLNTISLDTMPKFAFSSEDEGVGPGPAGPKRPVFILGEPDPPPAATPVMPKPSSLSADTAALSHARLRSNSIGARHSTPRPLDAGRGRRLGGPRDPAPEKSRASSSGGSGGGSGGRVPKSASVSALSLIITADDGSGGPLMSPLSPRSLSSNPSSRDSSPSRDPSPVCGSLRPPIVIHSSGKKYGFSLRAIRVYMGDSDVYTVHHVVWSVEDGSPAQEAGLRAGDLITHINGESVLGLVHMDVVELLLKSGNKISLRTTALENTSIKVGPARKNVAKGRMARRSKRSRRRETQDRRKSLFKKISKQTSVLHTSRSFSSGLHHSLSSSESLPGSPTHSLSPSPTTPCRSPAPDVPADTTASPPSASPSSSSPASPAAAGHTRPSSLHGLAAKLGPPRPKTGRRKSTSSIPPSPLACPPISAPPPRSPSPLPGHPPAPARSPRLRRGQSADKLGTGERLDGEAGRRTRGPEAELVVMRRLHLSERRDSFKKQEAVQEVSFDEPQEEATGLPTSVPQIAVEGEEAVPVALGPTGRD
# [8] = target: Dual specificity testis-specific protein kinase 2 (Homo sapiens, UniProt Q96S53); test: TESK2(TES2LGRL) Takeda global kinase panel
# Chain of Dual specificity testis-specific protein kinase 2 (Q96S53 whole entry): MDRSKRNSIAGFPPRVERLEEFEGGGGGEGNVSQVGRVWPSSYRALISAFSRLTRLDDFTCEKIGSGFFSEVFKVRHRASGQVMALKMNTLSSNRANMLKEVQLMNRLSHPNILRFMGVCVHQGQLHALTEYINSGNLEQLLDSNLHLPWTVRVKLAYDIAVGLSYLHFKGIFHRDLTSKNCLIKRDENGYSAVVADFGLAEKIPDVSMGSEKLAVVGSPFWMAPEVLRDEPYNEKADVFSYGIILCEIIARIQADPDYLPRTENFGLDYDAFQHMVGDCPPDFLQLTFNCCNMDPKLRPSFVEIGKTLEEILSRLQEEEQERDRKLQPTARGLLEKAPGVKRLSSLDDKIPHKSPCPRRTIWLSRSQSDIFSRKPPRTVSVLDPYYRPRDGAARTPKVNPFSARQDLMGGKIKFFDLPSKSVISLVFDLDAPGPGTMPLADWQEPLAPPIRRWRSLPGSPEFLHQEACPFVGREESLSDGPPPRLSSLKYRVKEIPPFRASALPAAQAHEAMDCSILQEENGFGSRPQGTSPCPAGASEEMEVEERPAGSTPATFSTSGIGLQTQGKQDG
# [9] = target: Mitogen-activated protein kinase kinase kinase 11 (Homo sapiens, UniProt Q16584); test: MLK3(M311LGF1) Takeda global kinase panel
# [10] = target: Calcium/calmodulin-dependent protein kinase type 1B (Homo sapiens, UniProt Q6P2M8); test: CaMK1beta(PNCKLGRI) Takeda global kinase panel
# Aurora kinase A = Aurora kinase A (Homo sapiens, UniProt O14965); test: AurA [Aur2(AURALGF1)] Takeda global kinase panel
# Rhodopsin kinase GRK1 = Rhodopsin kinase GRK1 (Homo sapiens, UniProt Q15835); test: RHODK [GRK1(GRK1LGA1)] Takeda global kinase panel
# [11] = target: Phosphatidylinositol 4,5-bisphosphate 3-kinase catalytic subunit alpha isoform (Homo sapiens, UniProt P42336); test: PI3KCA(PI3ACGR1) Takeda global kinase panel
# [12] = target: Rho-associated protein kinase 2 (Homo sapiens, UniProt O75116); test: ROCK2(ROC2LGG1) Takeda global kinase panel
# [13] = target: Serine/threonine-protein kinase SBK1 (Homo sapiens, UniProt Q52WX2); test: SBK(SBK1LGY1) Takeda global kinase panel
# Chain of Serine/threonine-protein kinase SBK1 (Q52WX2 whole entry): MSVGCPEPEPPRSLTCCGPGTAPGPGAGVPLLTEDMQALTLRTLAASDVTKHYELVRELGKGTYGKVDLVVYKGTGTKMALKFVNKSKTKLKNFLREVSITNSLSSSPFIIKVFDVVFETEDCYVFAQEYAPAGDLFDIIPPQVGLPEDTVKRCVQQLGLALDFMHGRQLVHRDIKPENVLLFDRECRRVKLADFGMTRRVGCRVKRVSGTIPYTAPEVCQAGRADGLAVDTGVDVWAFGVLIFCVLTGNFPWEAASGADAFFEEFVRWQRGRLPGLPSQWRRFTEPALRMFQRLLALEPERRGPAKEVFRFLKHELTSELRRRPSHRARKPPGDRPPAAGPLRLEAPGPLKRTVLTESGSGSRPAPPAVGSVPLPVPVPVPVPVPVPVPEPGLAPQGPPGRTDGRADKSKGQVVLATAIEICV
# [14] = target: Serine/threonine-protein kinase Nek1 (Homo sapiens, UniProt Q96PY6); test: Nek1(NEK1LGY1) Takeda global kinase panel
# [15] = target: Tyrosine-protein kinase ITK/TSK (Homo sapiens, UniProt Q08881); test: ITK(ITK1CGF1) Takeda global kinase panel
# Chain of Tyrosine-protein kinase ITK/TSK (Q08881 whole entry): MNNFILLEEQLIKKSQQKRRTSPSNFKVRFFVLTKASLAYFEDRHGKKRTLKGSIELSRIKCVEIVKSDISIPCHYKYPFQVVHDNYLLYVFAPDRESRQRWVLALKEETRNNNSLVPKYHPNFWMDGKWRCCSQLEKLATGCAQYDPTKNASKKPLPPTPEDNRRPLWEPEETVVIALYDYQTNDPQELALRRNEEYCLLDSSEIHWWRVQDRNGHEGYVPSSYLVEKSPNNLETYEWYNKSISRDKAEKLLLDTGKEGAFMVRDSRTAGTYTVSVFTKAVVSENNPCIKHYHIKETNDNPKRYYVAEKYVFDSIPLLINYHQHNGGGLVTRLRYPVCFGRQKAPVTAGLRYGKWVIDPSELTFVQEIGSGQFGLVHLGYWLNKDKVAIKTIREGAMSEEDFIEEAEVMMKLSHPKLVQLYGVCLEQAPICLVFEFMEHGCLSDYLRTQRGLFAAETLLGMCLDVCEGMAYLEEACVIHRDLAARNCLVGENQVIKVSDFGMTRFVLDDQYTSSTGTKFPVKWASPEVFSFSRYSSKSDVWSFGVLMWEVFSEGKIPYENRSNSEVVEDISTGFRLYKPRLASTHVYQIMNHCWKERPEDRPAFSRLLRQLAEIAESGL
# [16] = target: Serine/threonine-protein kinase tousled-like 1 (Homo sapiens, UniProt Q9UKI8); test: TLK1(TLK1LGP1) Takeda global kinase panel
# [17] = target: Mitogen-activated protein kinase 12 (Homo sapiens, UniProt P53778); test: p38gamma(MP12LGP1) Takeda global kinase panel
# [18] = target: Serine/threonine-protein kinase MARK2 (Homo sapiens, UniProt Q7KZI7); test: MARK2(MAR2LGY1) Takeda global kinase panel
# TGF-beta receptor type-2 = TGF-beta receptor type-2 (Homo sapiens, UniProt P37173); test: TGFbetaR2(TGF2LGY1) Takeda global kinase panel
# [19] = target: Tyrosine-protein kinase Lck (Homo sapiens, UniProt P06239); test: Lck(LCK1LGF1) Takeda global kinase panel
# [20] = target: Receptor tyrosine-protein kinase erbB-4 (Homo sapiens, UniProt Q15303); test: HER4(ERB4CGF1) Takeda global kinase panel
# [21] = target: Casein kinase I isoform delta (Homo sapiens, UniProt P48730); test: CK1delta(CS1DLGI1) Takeda global kinase panel
# Chain of Casein kinase I isoform delta (P48730 whole entry, canonical isoform): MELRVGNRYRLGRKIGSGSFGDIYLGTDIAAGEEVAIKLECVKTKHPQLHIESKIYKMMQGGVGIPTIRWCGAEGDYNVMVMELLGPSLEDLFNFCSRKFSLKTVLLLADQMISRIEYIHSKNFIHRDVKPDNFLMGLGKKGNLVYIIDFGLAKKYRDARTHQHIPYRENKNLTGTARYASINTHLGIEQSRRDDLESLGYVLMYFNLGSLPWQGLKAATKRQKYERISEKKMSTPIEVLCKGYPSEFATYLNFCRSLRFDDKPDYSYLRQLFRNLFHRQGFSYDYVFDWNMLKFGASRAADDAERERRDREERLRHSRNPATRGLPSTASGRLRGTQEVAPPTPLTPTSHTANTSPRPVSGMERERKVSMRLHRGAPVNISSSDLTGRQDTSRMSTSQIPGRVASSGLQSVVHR
# [22] = target: G protein-coupled receptor kinase 6 (Homo sapiens, UniProt P43250); test: GRK6(GRK6LGP1) Takeda global kinase panel
# Chain of G protein-coupled receptor kinase 6 (P43250 whole entry, the tested form may be a part): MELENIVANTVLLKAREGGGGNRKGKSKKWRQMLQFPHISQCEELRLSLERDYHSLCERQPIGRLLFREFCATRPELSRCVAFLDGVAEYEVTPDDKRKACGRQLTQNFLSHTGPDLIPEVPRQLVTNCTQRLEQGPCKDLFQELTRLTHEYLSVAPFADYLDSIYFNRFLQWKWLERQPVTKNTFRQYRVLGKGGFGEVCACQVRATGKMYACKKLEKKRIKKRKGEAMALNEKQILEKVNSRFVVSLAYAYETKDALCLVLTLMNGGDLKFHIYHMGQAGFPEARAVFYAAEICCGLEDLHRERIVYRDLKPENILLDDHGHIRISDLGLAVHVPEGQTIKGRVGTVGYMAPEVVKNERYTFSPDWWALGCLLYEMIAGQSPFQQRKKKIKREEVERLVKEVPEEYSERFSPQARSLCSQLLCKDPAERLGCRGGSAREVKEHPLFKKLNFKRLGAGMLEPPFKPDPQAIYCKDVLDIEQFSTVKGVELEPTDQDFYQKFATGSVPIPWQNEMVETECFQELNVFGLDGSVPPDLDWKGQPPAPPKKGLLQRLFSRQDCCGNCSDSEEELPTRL
# [23] = target: PAS domain-containing serine/threonine-protein kinase (Homo sapiens, UniProt Q96RG2); test: PASK(PASKPHY1) Takeda global kinase panel
# [24] = target: Serine/threonine-protein kinase DCLK3 (Homo sapiens, UniProt Q9C098); test: DCAMKL3(DCL3LGP1) Takeda global kinase panel
# [25] = target: Muscarinic acetylcholine receptor M3 (Homo sapiens) (UniProt P20309); settings: Compound concentration 10.0 uM
# [26] = target: Serine/threonine-protein kinase VRK1 (Homo sapiens, UniProt Q99986); test: VRK1(VRK1LGRI) Takeda global kinase panel
# [27] = target: Interferon-induced, double-stranded RNA-activated protein kinase (Homo sapiens, UniProt P19525); test: PKR(EIK2LGY1) Takeda global kinase panel
# Chain of Interferon-induced, double-stranded RNA-activated protein kinase (P19525 whole entry, the tested form may be a part): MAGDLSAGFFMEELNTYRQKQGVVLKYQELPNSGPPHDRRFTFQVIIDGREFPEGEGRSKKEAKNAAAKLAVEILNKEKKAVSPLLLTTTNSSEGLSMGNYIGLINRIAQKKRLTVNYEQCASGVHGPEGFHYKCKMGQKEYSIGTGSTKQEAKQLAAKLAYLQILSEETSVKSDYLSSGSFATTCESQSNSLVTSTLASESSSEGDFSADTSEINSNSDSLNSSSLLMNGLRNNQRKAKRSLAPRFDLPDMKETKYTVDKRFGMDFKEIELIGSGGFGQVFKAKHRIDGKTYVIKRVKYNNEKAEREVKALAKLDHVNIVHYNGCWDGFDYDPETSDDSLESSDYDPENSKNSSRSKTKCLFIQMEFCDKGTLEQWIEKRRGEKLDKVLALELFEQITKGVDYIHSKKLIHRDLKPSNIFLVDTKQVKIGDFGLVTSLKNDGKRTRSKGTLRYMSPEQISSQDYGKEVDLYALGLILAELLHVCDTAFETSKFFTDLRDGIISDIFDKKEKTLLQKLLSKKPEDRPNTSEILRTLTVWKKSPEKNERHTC
# [28] = target: Mixed lineage kinase domain-like protein (Homo sapiens, UniProt Q8NB16); test: MLKL(MLKLPHY1) Takeda global kinase panel
# [29] = target: Tyrosine-protein kinase Fes/Fps (Homo sapiens, UniProt P07332); test: Fes(FES1LHY1) Takeda global kinase panel
# [30] = target: Tyrosine-protein kinase Fer (Homo sapiens, UniProt P16591); test: Fer(FER1LGY1) Takeda global kinase panel
# [31] = target: Serine/threonine-protein kinase 32C (Homo sapiens, UniProt Q86UX6); test: YANK3(S32CLGI1) Takeda global kinase panel
# [32] = target: Glutamate NMDA receptor (Rattus norvegicus) (UniProt P35439+Q00959+Q00960+Q00961+Q62645+Q8VHN2+Q9R1M7); settings: Compound concentration 10.0 uM
# [33] = target: Serine/threonine-protein kinase 24 (Homo sapiens, UniProt Q9Y6E0); test: MST3(ST24LGC1) Takeda global kinase panel
# [34] = target: Serine/threonine-protein kinase Nek9 (Homo sapiens, UniProt Q8TD19); test: Nek9(NEK9LGF1) Takeda global kinase panel
# [35] = target: Serine/threonine-protein kinase ULK1 (Homo sapiens, UniProt O75385); test: ULK1(ULK1LGF1) Takeda global kinase panel
# [36] = target: TRAF2 and NCK-interacting protein kinase (Homo sapiens, UniProt Q9UKE5); test: TNIK [ZC2(TNIKLGF1)] Takeda global kinase panel
Compound,inhibition [1],inhibition [2],IC50 [3],IC50 [4],IC50 [5],IC50 [6],IC50 [7],IC50 [8],IC50 [9],IC50 [10],IC50 (Aurora kinase A),IC50 (Rhodopsin kinase GRK1),IC50 [11],IC50 [12],IC50 [13],IC50 [14],IC50 [15],IC50 [16],IC50 [17],IC50 [18],also measured
CN1C(=O)[C@@H](N2CCc3cn(Cc4ccccc4)nc3C2=O)COc2ccccc21 [TP-030-1],-4%,15%,1000 nM,1000 nM,1000 nM,1000 nM,1000 nM,1000 nM,1000 nM,1000 nM,1000 nM,1000 nM,1000 nM,1000 nM,1000 nM,1000 nM,1000 nM,1000 nM,1000 nM,1000 nM,IC50 (TGF-beta receptor type-2): 1000 nM; IC50 [19]: 1000 nM; IC50 [20]: 1000 nM; IC50 [21]: 1000 nM; IC50 [22]: 1000 nM; IC50 [23]: 1000 nM; IC50 [24]: 1000 nM; inhibition [25]: 1%; IC50 [26]: 1000 nM; IC50 [27]: 1000 nM; IC50 [28]: 1000 nM; IC50 [29]: 1000 nM; IC50 [30]: 1000 nM; IC50 [31]: 1000 nM; inhibition [32]: 0%; IC50 [33]: 1000 nM; IC50 [34]: 1000 nM; IC50 [35]: 1000 nM; IC50 [36]: 1000 nM
CN1C(=O)[C@@H](N2CCc3cn(CC4CCS(=O)(=O)CC4)nc3C2=O)COc2ccccc21 [TP-030n],9%,0%,1000 nM,1000 nM,1000 nM,1000 nM,1000 nM,1000 nM,1000 nM,1000 nM,1000 nM,1000 nM,1000 nM,1000 nM,1000 nM,1000 nM,1000 nM,1000 nM,1000 nM,1000 nM,IC50 (TGF-beta receptor type-2): 1000 nM; IC50 [19]: 1000 nM; IC50 [20]: 1000 nM; IC50 [21]: 1000 nM; IC50 [22]: 1000 nM; IC50 [23]: 1000 nM; IC50 [24]: 1000 nM; inhibition [25]: -3%; IC50 [26]: 1000 nM; IC50 [27]: 1000 nM; IC50 [28]: 1000 nM; IC50 [29]: 1000 nM; IC50 [30]: 1000 nM; IC50 [31]: 1000 nM; inhibition [32]: -2%; IC50 [33]: 1000 nM; IC50 [34]: 1000 nM; IC50 [35]: 1000 nM; IC50 [36]: 1000 nM
